Reference: patent US6586460B1, “Heteroarotinoids containing urea or thiourea linker” (The Board of Regents for Oklahoma State University, priority 2001, dated 2003)

Legend:
CAOV-3 = assay: Growth inhibition assay (SRB); type: cell-based
Excerpt: (§1) To illustrate the general and useful biological activity of the heteroarotinoids described in this invention, selected compounds were screened for ability to inhibit the growth of three ovarian cancerous cell lines, namely Caov, SKOV, and OVCAR cell lines, three cervical cell lines (Cervix HPV-Wt p53, Cervix HPV-Mut p53, and Cervix HPV-Mut p53), and one vulvar (Vulvar HPV-Mut p53) cell line as shown in Tables I-III. The cell lines and the technology have been previously described [See Journal of Medicinal Chemistry, 1999, Vol. 42, pages 3602-3614 in an article entitled “Synthesis, Structure-Activity Relationships, and RAR γ-Ligand Interactions of Nitrogen Heteroarotinoids” by A. Dhar, S. Liu, J. Klucik, K. D. Berlin, M. M. Madler, S. Lu, R. T. Ivey, D. Zacheis, C. W. Brown, E. C. Nelson, P. J. Birckbichler, and D. M. Benbrook], but the general technique was slightly modified. Cultures of the cancerous cells were plated in volumes of 150 μL in 96-well microtiter plates at concentrations of 2000-4000 cells/well, depending upon the cell line used. Retinoids were added the next day at 4× the concentrations in 50 μL of media resulting in 1, 2, 3, 4, 5, 7, and 10 μM final concentrations of each retinoid. Control cultures were treated with the same volume of DMSO. After 3 days of treatment, the cell density in each well was determined by fixing the cells in trichloroacetic acid followed by staining the cytoplasmic proteins with sulforhoamine B (SRB). After rinsing, the SRB was solubilized in Tris-HCl, and the optical density of each culture was determined with a MR600 microtiter plate reader. Each experiment was performed in triplicate, and the three values of each treatment were averaged. The average OD of the treated cultures was divided by that of the control cultures treated with solvent alone. To determine the percent growth inhibition, this ratio was subtracted from 1 and multiplied by 100. Tables I, II, and III contain representative examples of the inhibition of growth by the inventive heteroarotinoids of the cancerous cell lines investigated at two independent concentrations (1 and 10 μM). As standards for comparison purposes, trans-retinoic acid (t-RA), 9-cis-retinoic acid (9-c-RA), 13-cis-retinoic acid (13-c-RA), and […] (4-HPR) were added in parallel experiments along with the heteroarotinoids and with dimethyl sulfoxide (DMSO) as the solvent. For convenience, the data in Tables II and III are duplicated and ranked according to tumor type.

SK-OV-3 = assay: Growth inhibition assay (SRB); type: cell-based
Excerpt: as §1

OVCAR-3 = assay: Growth inhibition assay (SRB); type: cell-based, human
Excerpt: as §1

[1] = system: OVCAR-3 cisplatin-resistant ovarian carcinoma cell line; assay: Cisplatin chemosensitization (MTS assay); type: cell-based, human; conditions: for chemosensitization to cisplatin (percent growth, FIG. 2): 1 μM retinoid 3 days before and 3 days after one hour of cisplatin (40 μM or 1 μg/ml)
Protocol: The compounds of the present invention also find advantage over the standard retinoids, including retinoic acid and 4-HPR as chemosensitization agents. In another study, ovarian carcinoma cultures, including cisplatin-resistant cultures, were trypsinized and plated in microtiter plates at a concentration of 1000 cells per well. A series of natural and synthetic retinoids, including exemplar heteroarotinoids with the novel three atom linker, at a concentration of 5 μM were added to triplicate wells in the microtiter plates twenty-four hours later. The same volume of DMSO used to administer the compounds were added to the control cultures. After three days of treatment, a range of cisplatin concentrations were added to the wells. After one hours of exposure, the media and retinoid drugs were replenished. Cell survival was quantitated using the MTS assay (Promega). […] Thus, the present invention contemplates the process of sensitizing cells to cisplatin therapy and combined cisplatin and radiation therapy using the inventive heteroarotinoids.
In this regard, the cisplatin resistant OVCAR-3 cell line was pre-treated with a concentration of 1 μM of the indicated retinoids for 3 days, and then exposed to cisplatin at the concentration detected in tumors of treated patients (40 μM or 1 μg/ml). […] After one hour of cisplatin exposure, the cisplatin was removed and the cultures were grown in the presence of 1 μM of the indicated retinoids for an additional 3 days. The number of living cells present was then determined using the MTS (3-(4,5-dimethylthiazol-2-yl)-5-(3-carboxymethoxyphenyl)-2H-tetrazolium inner salt) assay (Promega). In the MTS assay, metabolically active cells reduce the MTS compound to an aqueous soluble formazan resulting in an absorbance that can be measured at 490 nm (Promega Technical Bulletin No.169). The optical density at 490 nm (OD490) of the MTS-treated cultures is then determined and used as a measure of the number of living cells in each well. The percent growth is determined by dividing the OD490 of the treated cultures by the OD490 of the untreated control cultures.

[2] = system: SW962 vulvar carcinoma cultures; assay: Apoptosis assay, Annexin-V-Flous/propidium iodide flow cytometry; type: cell-based
Excerpt: Optimal chemotherapeutic agents will selectively kill tumor cells by inducing a natural form of cell death which is called “apoptosis”. Toxic agents kill both normal and tumor cells via a nonspecific process known as “necrosis”. To differentiate between apoptosis and necrosis in heteroarotinoid-treated cultures, a flow cytometric assay was employed. Treated cultures were stained with Annexin-V-Flous and propidium iodide, and the intensities of the stains are quantitated with Flow Cytometry. The Annexin-V-Flous binds to phosphatidyl serine on the exterior of apoptosing cells. This assay is specific for apoptosing cells because phosphatidyl serine is normally located on the inner membrane of the cells, a situation whereby the serine derivative cannot be bound by Annexin. However, during apoptosis, phosphatidyl serine is translocated to the outer membrane. The Flous moiety emits a signal that can be detected and quantitated by Flow Cytometry. In contrast, propidium iodide is taken up by necrotic cells that have lost membrane integrity. In this study, t-RA was used as a control for the non-apoptotic retinoids, and 4-HPR was used as a control for the apoptotic retinoids.

[3] = system: ovarian carcinoma cell line OVCAR-3; assay: Apoptosis in organotypic culture, TUNNEL assay; type: cell-based, human; conditions: 1 μM, two weeks, organotypic culture, TUNNEL assay
Protocol: In another experiment, the ovarian carcinoma cell line OVCAR-3 was grown in organotypic culture. After one week, the cultures were treated with 1 μM solution of heteroarotinoids 11, 12, and 13, or with the same volume of DMSO (solvent), for two weeks. Both 9-c-RA and 4-HPR were used as controls. At the end of the time, the cultures were fixed in sectioned, and stained with the TUNNEL assay to detect apoptosing cells. An experienced pathologist quantitated the percent of apoptosing cells by light microscopic examination.

[4] = Liver toxicity (plasma ALT activity, liver sections); type: in vivo; conditions: 10 mg/kg/day p.o.
Excerpt: Toxic compounds can induce livers to release enzymes called serum transaminases, such as alanine aminotransferase (ALT). The assay for ALT is the most universally accepted clinical laboratory marker used to evaluate hepatic toxicity induced by pharmaceuticals [See “Serum Transferase Elevations as Indicators or Hepatic Injury Following the Administration of Drugs”, Reg. Tox. Pharm., volume 27, 1998, pp 119-130, by D. E. Amacher]. At the end of the treatment period, blood was drawn from each animal. Plasma was separated by centrifugation and stored at −70° C. The activity of ALT was determined in aliquots of plasma by standard spectrophotometric enzymatic techniques which were based upon the reduction of pyruvate by lactate dehydrogenase [See “Aged Mice are Resistant to the Hepatotoxic Effects of Endotoxin and Galactosamine” in Exp. Mol. Pathology, volume 59, 1993, pp 27-37]. The method measures the disappearance of NADH from time of incubation at 37° C. The activities have been expressed in μm/Liter/min (Table VI). Two different amounts of plasma were utilized in each assay to assure the measurement of the maximum rate.
There were no statistically significant differences between the ALT activities in the different treatment groups (Table VI, t-test: P>0.05). All numbers were in the normal range (63 to 307 μm/Liter/Min) of ALT values for the species of mouse utilized. All liver sections were assessed by an experienced pathologist in a blinded manner. The degree of necrosis was very mild in all animals.

C-33A = assay: Growth inhibition assay (SRB); type: cell-based; conditions: 10 μM, three-day treatment, Table I
Excerpt: as §1

HT-3 = assay: Growth inhibition assay (SRB); type: cell-based; conditions: 10 μM, three-day treatment, Table I
Excerpt: as §1

SW962 = assay: Growth inhibition assay (SRB); type: cell-based; conditions: 10 μM, three-day treatment, Table I
Excerpt: as §1

SiHa = assay: Growth inhibition assay (SRB); type: cell-based; conditions: 10 μM, three-day treatment, Table I
Excerpt: as §1

[5] = 1 μM, 3 days of treatment, Table II
[6] = 10 μM, 3 days of treatment, Table III
[7] = 10 μM, three-day treatment, Table I

Compound | Percentage of growth inhibition, CAOV−3 (CAOV-3; [5]) [%] | Percentage of growth inhibition, CAOV−3 (CAOV-3; [6]) [%] | Percentage of growth inhibition, SKOV−3 (SK-OV-3; [5]) [%] | Percentage of growth inhibition, SKOV−3 (SK-OV-3; [6]) [%] | Percentage of growth inhibition, OVCAR−3 (OVCAR-3; [5]) [%] | Percentage of growth inhibition, OVCAR−3 (OVCAR-3; [6]) [%] | chemosensitization to cisplatin (percent growth, FIG. 2) [1] | % APOPTOSIS of OVCAR-3 cells [3] [%] | also measured
Cc1cc([N+](=O)[O-])ccc1NC(=S)Nc1ccc2c(c1)C(C)(C)CC(C)(C)S2 [heteroarotinoid 16] | 15.33 | 83.22 | −1.67 | 52.81 | 10.20 | 74.05 | effective |  | 
COc1cc2c(cc1NC(=S)Nc1ccc([N+](=O)[O-])cc1)C(C)(C)OCC2(C)C [heteroarotinoid 31, [(6-Methoxy-1,1,4,4-tetramethylisochroman-7-yl)amino][(4-nitrophenyl)amino]methane 1-Thione] |  |  |  |  | 3.88 |  |  |  | inhibition at 1 µM (CAOV-3; Homo sapiens, Caov-3, 72 h, 1 μM, 3 days of treatment, Table II, read-out: Percentage of growth inhibition, CAOV−3): 6.88%; inhibition at 10 µM (CAOV-3; Homo sapiens, Caov-3, 72 h, 10 μM, 3 days of treatment, Table III, read-out: Percentage of growth inhibition, CAOV−3): 30.8%; inhibition at 1 µM (SK-OV-3; Homo sapiens, SK-OV-3, 72 h, 1 μM, 3 days of treatment, Table II, read-out: Percentage of growth inhibition, SKOV−3): -1.42%; inhibition at 10 µM (SK-OV-3; Homo sapiens, SK-OV-3, 72 h, 10 μM, 3 days of treatment, Table III, read-out: Percentage of growth inhibition, SKOV−3): 27.4%; inhibition at 1 µM (OVCAR-3; Homo sapiens, OVCAR-3, 72 h, 1 μM, 3 days of treatment, Table II, read-out: Percentage of growth inhibition, OVCAR−3): 3.83%; inhibition at 10 µM (OVCAR-3; Homo sapiens, OVCAR-3, 72 h, 10 μM, 3 days of treatment, Table III, read-out: Percentage of growth inhibition, OVCAR−3): 80.6%; melting point: 178 to 179 °C
CC1=C(/C=C/C(C)=C/C=C/C(C)=C/C(=O)Nc2ccc(O)cc2)C(C)(C)CCC1 [4-HPR, 4-hydroxyphenylretinamide, reference compound] |  |  | 7.2 | 64.9 | 2.7 | 43.1 | but not 4-HPR are effective | 95 | Percentage of induction of apoptosis in SW962 vulvar carcinoma cultures ([2]; Days 0): 3%; Percentage of induction of apoptosis in SW962 vulvar carcinoma cultures ([2]; Days 1): 1.67%; Percentage of induction of apoptosis in SW962 vulvar carcinoma cultures ([2]; Days 2): 3.6%; Percentage of induction of apoptosis in SW962 vulvar carcinoma cultures ([2]; Days 3): 17.28%; liver toxicity (ALT activities, liver sections assessed by pathologist) ([4]; mice): do not appear to induce significant liver toxicity; ALT ACTIVITY ([4]; plasma of mice at end of treatment period): 149.7 ± 140.9 μm/Liter/Min; chemosensitization to cisplatin (cell survival, MTS) ([1]; 5 μM retinoid, three days, then range of cisplatin concentrations): prevented the growth increase
CCOC(=O)c1ccc(NC(=O)Nc2cccc3c2SC(C)(C)CC3(C)C)cc1 [heteroarotinoid 24] | 17.55 | 53.11 | 1.86 | 7.98 | −2.16 | 26.53 | effective |  | 
9-cis-retinoic acid [9-c-RA, reference compound] |  |  | 23.0 | 16.0 | 6.2 | 5.3 |  | 80 | Percentage growth inhibition, C-33A (Cervix HPV− Mut p53) (C-33A): 44%; Percentage growth inhibition, CAOV-3 (Ovarian HPV− Mut p53) (CAOV-3; [7]): 27%; Percentage growth inhibition, HT-3 (Cervix HPV− Mut p53) (HT-3): 47%; Percentage growth inhibition, SK-OV-3 (Ovarian HPV− Null p53) (SK-OV-3; [7]): 30%; Percentage growth inhibition, SW962 (Vulva HPV− Mut p53) (SW962): 31%; Percentage growth inhibition, SiHa (Cervix HPV+ Wt p53) (SiHa): 24%; Percentage growth inhibition, OVCAR-3 (Ovarian HPV− Mut p53) (OVCAR-3; [7]): 28%
